Assay results as given in ChEMBL document CHEMBL3044586, “Design, synthesis, and anticonvulsant screening of some substituted piperazine and aniline derivatives of 5-phenyl-oxazolidin-2,4-diones and 5,5-diphenylimidazolidin-2,4 diones” (Med Chem Res, 2012).
Activity calls are given as the source filed them. The rule behind the calls is not given here.

Columns and labels:
Mus musculus [1] = assay: Neurotoxicity against Mus musculus Swiss albino (mouse) assessed as inability to maintain equilibrium on rod at 30 to 300 mg/kg, ip measured after 0.5 hr by rotarod test; type: toxicity, organism-based; parameters: dose 30-300 mg/kg, route intraperitoneal; conditions: in vivo
Mus musculus [2] = assay: Anticonvulsant activity in Mus musculus Swiss albino (mouse) assessed as reduction in maximal electroshock-induced seizure at 30 to 300 mg/kg, ip measured after 4 hr; type: functional, organism-based
Mus musculus [3] = assay: Anticonvulsant activity in Mus musculus Swiss albino (mouse) assessed as reduction in maximal electroshock-induced seizure at 30 to 300 mg/kg, ip measured after 0.5 hr; type: functional, organism-based
Mus musculus [4] = assay: Neurotoxicity against Mus musculus Swiss albino (mouse) assessed as inability to maintain equilibrium on rod at 30 to 300 mg/kg, ip measured after 4 hr by rotarod test; type: toxicity, organism-based; parameters: dose 30-300 mg/kg, route intraperitoneal; conditions: in vivo
Mus musculus [5] = assay: Antagonist activity at 5HT2A receptor in ip dosed Mus musculus Swiss albino (mouse) assessed as inhibition of +/-DOI-induced head twitching administered 60 min prior to +/-DOI-challenge measured for 20 min; type: functional; conditions: read-out: ID50 (the source's name)
Mus musculus [6] = assay: Anticonvulsant activity in Mus musculus Swiss albino (mouse) assessed as reduction in maximal electroshock-induced seizure at 30 mg/kg, ip measured after 4 hr; type: functional, organism-based; parameters: dose 30 mg/kg
Rattus norvegicus [7] = assay: Neurotoxicity against Rattus norvegicus Wistar (rat) assessed as inability to maintain equilibrium on rod at 30 mg/kg, po measured after 4 hr by rotarod test; type: toxicity, organism-based; parameters: dose 30 mg/kg, route oral; conditions: in vivo
Rattus norvegicus [8] = assay: Neurotoxicity against Rattus norvegicus Wistar (rat) assessed as inability to maintain equilibrium on rod at 30 mg/kg, po measured after 0.5 hr by rotarod test; type: toxicity, organism-based; parameters: dose 30 mg/kg, route oral; conditions: in vivo
Rattus norvegicus [9] = assay: Anticonvulsant activity in Rattus norvegicus Wistar (rat) assessed as reduction in maximal electroshock-induced seizures at 30 mg/kg, po measured after 4 hr; type: functional, organism-based; parameters: dose 30 mg/kg
Rattus norvegicus [10] = assay: Anticonvulsant activity in Rattus norvegicus Wistar (rat) assessed as reduction in maximal electroshock-induced seizures at 30 mg/kg, po measured after 0.5 hr; type: functional, organism-based; parameters: dose 30 mg/kg
Rattus norvegicus [11] = assay: Presynaptic agonist activity at 5HT1A receptor in Rattus norvegicus Wistar (rat) assessed as change in rectal temperature at 20 mg/kg, ip measured after 120 min (reference value: 0.0 +/- 0.1 degC); type: functional, organism-based; parameters: dose 20 mg/kg
Rattus norvegicus [12] = assay: Presynaptic agonist activity at 5HT1A receptor in Rattus norvegicus Wistar (rat) assessed as change in rectal temperature at 10 mg/kg, ip measured after 120 min (reference value: 0.0 +/- 0.1 degC); type: functional, organism-based; parameters: dose 10 mg/kg
Rattus norvegicus [13] = assay: Presynaptic agonist activity at 5HT1A receptor in Rattus norvegicus Wistar (rat) assessed as change in rectal temperature at 20 mg/kg, ip measured after 90 min (reference value: -0.2 +/- 0.1 degC); type: functional, organism-based; parameters: dose 20 mg/kg
Rattus norvegicus [14] = assay: Presynaptic agonist activity at 5HT1A receptor in Rattus norvegicus Wistar (rat) assessed as change in rectal temperature at 10 mg/kg, ip measured after 90 min (reference value: -0.2 +/- 0.1 degC); type: functional, organism-based; parameters: dose 10 mg/kg
Rattus norvegicus [15] = assay: Presynaptic agonist activity at 5HT1A receptor in Rattus norvegicus Wistar (rat) assessed as change in rectal temperature at 20 mg/kg, ip measured after 60 min (reference value: 0.0 +/- 0.1 degC); type: functional, organism-based; parameters: dose 20 mg/kg
Rattus norvegicus [16] = assay: Presynaptic agonist activity at 5HT1A receptor in Rattus norvegicus Wistar (rat) assessed as change in rectal temperature at 10 mg/kg, ip measured after 60 min (reference value: 0.0 +/- 0.1 degC); type: functional, organism-based; parameters: dose 10 mg/kg
Rattus norvegicus [17] = assay: Presynaptic agonist activity at 5HT1A receptor in Rattus norvegicus Wistar (rat) assessed as change in rectal temperature at 20 mg/kg, ip measured after 30 min (reference value: -0.1 +/- 0.1 degC); type: functional, organism-based; parameters: dose 20 mg/kg
Rattus norvegicus [18] = assay: Presynaptic agonist activity at 5HT1A receptor in Rattus norvegicus Wistar (rat) assessed as change in rectal temperature at 10 mg/kg, ip measured after 30 min (reference value: -0.1 +/- 0.1 degC); type: functional, organism-based; parameters: dose 10 mg/kg
Mus musculus [19] = assay: Binding affinity to 5HT2A receptor in ip dosed Mus musculus Swiss albino (mouse) assessed as effect on +/-DOI-induced head twitching administered 60 min prior to +/-DOI-challenge measured for 20 min; type: functional, organism-based
Rattus norvegicus [20] = assay: Postsynaptic agonist activity at 5HT1A receptor in Rattus norvegicus Wistar (rat) assessed as increase in lower lip retraction at 10 to 20 mg/kg, ip measured after 15 min; type: functional, organism-based
Mus musculus [21] = assay: Anticonvulsant activity in Mus musculus Swiss albino (mouse) assessed as reduction in maximal electroshock-induced seizure at 300 mg/kg, ip measured after 4 hr; type: functional, organism-based; parameters: dose 300 mg/kg
Mus musculus [22] = assay: Neurotoxicity against Mus musculus Swiss albino (mouse) assessed as inability to maintain equilibrium on rod at 300 mg/kg, ip measured after 4 hr by rotarod test; type: toxicity, organism-based; parameters: dose 300 mg/kg, route intraperitoneal; conditions: in vivo
Mus musculus [23] = assay: Anticonvulsant activity in Mus musculus Swiss albino (mouse) assessed as reduction in maximal electroshock-induced seizure at 100 mg/kg, ip measured after 4 hr; type: functional, organism-based; parameters: dose 100 mg/kg
Rattus norvegicus [24] = assay: Postsynaptic antagonist activity at 5HT1A receptor in Rattus norvegicus Wistar (rat) assessed as inhibition of 8-OH-DPAT-induced lower lip retraction at 10 to 20 mg/kg, ip administered 45 min prior to 8-OH-DPAT-challenge measured after 15 min; type: functional, organism-based
Mus musculus [25] = assay: Anticonvulsant activity in Mus musculus Swiss albino (mouse) assessed as reduction in maximal electroshock-induced seizure at 100 mg/kg, ip measured after 0.5 hr; type: functional, organism-based; parameters: dose 100 mg/kg

SMILES | Activity (Mus musculus [1]) | Activity (Mus musculus [2]) | Activity (Mus musculus [3]) | Activity (Mus musculus [4]) | Activity (Rattus norvegicus [7]) | Activity (Rattus norvegicus [8]) | Activity (Rattus norvegicus [9]) | Activity (Rattus norvegicus [10]) | deltaT (Rattus norvegicus [11]) | deltaT (Rattus norvegicus [12]) | deltaT (Rattus norvegicus [13]) | deltaT (Rattus norvegicus [14]) | deltaT (Rattus norvegicus [15]) | deltaT (Rattus norvegicus [16]) | deltaT (Rattus norvegicus [17]) | deltaT (Rattus norvegicus [18]) | further results
O=C1OC(c2ccccc2)C(=O)N1CCN1CCN(c2ccccn2)CC1 (configuration not stated) | Non-toxic | inactive | inactive | Non-toxic |  |  |  |  |  |  |  |  |  |  |  |  | 
O=C(c1ccc(F)cc1)C1CCN(CCn2c(=O)[nH]c3ccccc3c2=O)CC1 [KETANSERIN] |  |  |  |  |  |  |  |  |  |  |  |  |  |  |  |  | ED50 (Mus musculus [5]): 0.12 mg/kg
Cc1ccc(NCCN2C(=O)NC(c3ccccc3)(c3ccccc3)C2=O)cc1 | Non-toxic | inactive | inactive | Non-toxic |  |  |  |  |  |  |  |  |  |  |  |  | 
O=C1NC(c2ccccc2)(c2ccccc2)C(=O)N1CCN1CCN(c2ccc(F)cc2)CC1 | Non-toxic |  | inactive | Non-toxic | Non-toxic | Non-toxic | Active | inactive | -1.7 °C | -0.8 °C | -1.6 °C | -0.7 °C | -1.6 °C | -0.7 °C | -1.7 °C | -0.9 °C | Activity (Mus musculus [6]): Active; Activity (Mus musculus [19]): inactive; Activity (Rattus norvegicus [20]): Active
Cc1ccc(NCCN2C(=O)OC(c3ccccc3)C2=O)cc1 (configuration not stated) | Non-toxic | inactive | inactive | Non-toxic |  |  |  |  |  |  |  |  |  |  |  |  | 
O=C1NC(c2ccccc2)(c2ccccc2)C(=O)N1CCN1CCN(c2ccc(O)cc2)CC1 | Non-toxic |  | inactive |  |  |  |  |  |  |  |  |  |  |  |  |  | Activity (Mus musculus [21]): Active; Activity (Mus musculus [22]): Toxic
O=C1OC(c2ccccc2)C(=O)N1CCN1CCN(c2ccc(O)cc2)CC1 (configuration not stated) | Non-toxic | inactive | inactive | Non-toxic |  |  |  |  |  |  |  |  |  |  |  |  | 
O=C1OC(c2ccccc2)C(=O)N1CCN1CCN(c2ccc(F)cc2)CC1 (configuration not stated) | Non-toxic |  | inactive | Non-toxic | Non-toxic | Non-toxic | inactive | inactive | -1.4 °C | -0.5 °C | -1.4 °C | -0.5 °C | -1.4 °C | -0.4 °C | -1.5 °C | -0.6 °C | Activity (Mus musculus [23]): Active; Activity (Mus musculus [19]): inactive; inhibition (Rattus norvegicus [24]): Active
Cc1ccc(N2CCN(CCN3C(=O)OC(c4ccccc4)C3=O)CC2)cc1 (configuration not stated) | Non-toxic | inactive | inactive | Non-toxic |  |  |  |  |  |  |  |  |  |  |  |  | 
O=C1NC(c2ccccc2)(c2ccccc2)C(=O)N1CCNc1ccc(F)cc1 | Non-toxic |  |  | Non-toxic | Non-toxic | Non-toxic | Active | Active | -1.5 °C | -0.7 °C | -2.9 °C | -0.9 °C | -2.7 °C | -0.7 °C | -2.5 °C | -0.5 °C | Activity (Mus musculus [6]): Active; Activity (Mus musculus [25]): Active; Activity (Mus musculus [19]): inactive; Activity (Rattus norvegicus [20]): Active
O=C1OC(c2ccccc2)C(=O)N1CCNc1ccc(O)cc1 (configuration not stated) | Non-toxic |  |  | Non-toxic | Non-toxic | Non-toxic | Active | Active | -1.1 °C | -0.6 °C | -1.6 °C | -0.7 °C | -1.2 °C | -0.6 °C | -1 °C | -0.4 °C | Activity (Mus musculus [6]): Active; Activity (Mus musculus [25]): Active; ED50 (Mus musculus [5]): 11 mg/kg; inhibition (Rattus norvegicus [24]): Active
